Assay results taken from patent publication US20250171821A1, “HIF-1 ACTIVATORS AND USES THEREOF” (Ramot at Tel-Aviv University Ltd., priority 2022, published 2025).
“Also recorded” adds a separate entry of the source.

Tests used:
ischemic anastomoses = details: cited from earlier work
mice = details: after dextran sulfate sodium-induced intestinal fibrosis; cited from earlier work
MG-63 cells [1] = assay: Picrosirius red staining of collagen fibers in MG-63 cells; type: cell-based, human; details: 7 days, osteogenic differentiation medium plus peptide
Procedure: (§1) The cultivation of MG-63 was performed in α-MEM growth medium (Sartorius). Osteogenic differentiation was performed by plating 20,000 cells/well into a sterile 24-well plate. Cells were left to adhere for 1 day and then switched to the osteogenic medium consisting of a minimum essential medium alpha (α-MEM) supplemented with 10% heat-inactivated FBS, 2 mM L-glutamine, 100 U/mL penicillin, 100 μg/mL streptomycin, 50 μM ascorbate-2-phosphate, and 10 mM β-glycerophosphate. Medium was changed every 2-3 days together with peptide supplementation. Seven to twenty-eight days after induction of differentiation, the production of extracellular calcified mineral matrix was visualized by Alizarin Red staining (Sigma) and Picrosirius Red (Scytek).
To visualize the extent of ECM formation, Picrosirius red dye was used to stain Collagen-I and Collagen-III. Treated cells were fixed with 4% PFA, washed with PBS and dried at 37° C. or at room temperature (RT) for overnight incubation. Then, the cells were stained with 400 μL of Sirius Red dye (0.1% in saturated picric acid) for 1 hour with mild shaking. The stained cell layers were then extensively washed with 0.01 N HCl to remove all non-bounded dye. After rinsing, photographs were taken under confocal microscope using polarized light.
Evaluation of Collagen fibers in MG-63 cells upon Def16-EPAS1 treatment—To evaluate the variation in Collagen fiber levels between normal MG-63 cells and MG-63 cells treated with the Def16-EPAS1 peptide, cells were supplemented to a 7-day incubation period with osteogenic differentiation medium (which includes 50 μg/mL ascorbic acid and 10 mM β-glycerophosphate), along with the addition of Def16-EPAS1 peptide. Collagen fibers were highlighted/stained by Picro-Sirius Red staining according to the manufacturer's instructions (FIG. 12). The PSR staining allows to clearly distinguish between Collagen-I and III fibers in cell culture. In the evaluation of polarizing colors of collagens fibers, Collagen-I and III were polarized with 488 nm and 647 nm wavelength, respectively, and visualized with the confocal microscope.

Bovine Dermal Fibroblast = assay: Collagen-I immunofluorescence in bovine dermal fibroblasts; type: cell-based; details: 48 hours
Procedure: For microscopy images, cells were cultured in a 24-well plate and incubated with medium supplemented with the indicated concentrations of the treating entity (e.g., peptides or DFO) at 37° C. under 5% CO2. Cells were then washed additional three times with cold phosphate-buffered saline (PBS), following a 20 minute fixation in a 4% paraformaldehyde (PFA) in PBS and extensively washed three times with PBS to remove the PFA, followed by a 20 minute wash with blocking and penetration solution (PBS with 0.1% Triton X-100 and 2% BSA). Fixed cells were incubated with antibodies for 1 hour at 25° C., washed, and developed together with fluorescence-tagged secondary antibodies (Alexa 488 and 647, Abcam). Cell nuclei were stained with 1 mg/mL 4′,6-diamidino-2-phenylindole (DAPI Staining Solution ab228549, Abcam). Images were taken using a ZEISS LSM 900 in confocal mode, using Zen 3.1. Fluorescence readouts were obtained at ex/em of 358/461, 495/519 nm, and 652/668 nm for blue, green, and red, respectively.
Effect of Def16-EPAS1 on Collagen accumulation in Bovine Dermal Fibroblast—To test HIF mimicking peptide and its effect on Collagen accumulation in additional mammalian cells, the present inventors have examined the effect of the Def16-EPAS1 peptide on Bovine Dermal Fibroblast. […]

MG-63 cells [2] = assay: Alizarin Red S staining of mineralization in MG-63 cells; type: cell-based, human
Procedure: as §1
To visualize calcium deposition upon osteogenic differentiation, an Alizarin-red-S (Sigma) stock solution of 40 mM was used. Cells were washed three times with PBS and fixed in 1 mL of 4% PFA for 20 minutes at room temperature (RT). After fixation, cells were rinsed with double distilled water (DDW) and stained for 10 minutes in 1 mL Alizarin-red-S stock solution under continuous rotation. To diminish unspecific staining, cells were washed extensively three times with PBS. Stained samples were stored at 4° C. covered with PBS. […]

Compound | levels of collagen (ischemic anastomoses) | collagen deposition (mice) | Collagen-I fibers (MG-63 cells [1]) | Collagen-III fibers (MG-63 cells [1]) | Collagen-I fibers (MG-63 cells [1]; listed as DEF16-EPAS1) | Collagen-III fibers (MG-63 cells [1]; listed as DEF16-EPAS1) | Collagen fibril morphology (Bovine Dermal Fibroblast; higher peptide concentrations) | Collagen-I levels compared to baseline of nontreated cells (Bovine Dermal Fibroblast; peptide concentration above 10 μM) | deposition of calcium (mineralized nodules) (MG-63 cells [2]; 5 μM or 20 μM peptide, 7 days, osteogenic differentiation medium) | mineralizing matrix formation (Alizarin Red S and Picrosirius Red) (MG-63 cells [2]; 10 μM peptide, 7, 14, 21 and 28 days, differentiation medium)
COC(=O)CNC(=O)C(=O)OC [DMOG] | increased levels of collagen | significant decrease in collagen deposition |  |  |  |  |  |  |  | 
Def16-EPAS1: GRCRGFRRRCFCTTHCELDLETLAPYIPMDGEDFQL (SEQ ID NO: 3): Def16 cell penetrating sequence fused to the EPAS1 peptide (Def16-EPAS1; MOD_RES 1 Can be FITC-labeled; MOD_RES 3 Can be FITC-labeled; MOD_RES 10 Can be FITC-labeled; MOD_RES 12 Can be FITC-labeled; MOD_RES 16..17 Can be FITC-labeled; MOD_RES 19 Can be FITC-labeled; MOD_RES 21 Can be FITC-labeled; MOD_RES 30 Can be FITC-labeled; MOD_RES 32..33 Can be FITC-labeled; MOD_RES 36 Can be FITC-labeled) |  |  | over-production | over-production | enhanced levels | enhanced levels | thick fibril bundles of Collagen were observed | more than 2 fold | strong induction of deposition of calcium; also recorded: Typical mineralized nodules were observed | form a mineralizing matrix
